As usually defined, the IC50 is the concentration at which inhibition is half-maximal. Broadly, the inhibition is how much of the control response was suppressed. Read a high inhibition as a strong effect. For orientation: Ki means the equilibrium dissociation constant of an inhibitor or competing ligand from its target. Usually CC50 stands for the concentration that lowers cell viability or growth by half. A low value points to greater toxicity to the cells. As usually defined, the MIC is the smallest concentration in the dilution series that meets the test's criterion for growth inhibition. One may read the MIC50 as the lowest concentration that inhibits either 50% of growth or 50% of the strains tested, depending on the study. Lower therefore signals higher susceptibility.

This is an account of results in ChEMBL document CHEMBL5356930, “Small-molecule inhibitors of bacterial-producing metallo-β-lactamases: insights into their resistance mechanisms and biochemical analyses of their activities” (RSC Med Chem, 2023).

The nature of series [1]: Inhibition of bacterial Metallo-beta-lactamase VIM-2 (unknown origin). On the set-up: species or system Bacteria.
Series [2] in a line: Inhibition of bacterial Metallo-beta-lactamase GIM-1 using nitrocefin as substrate. On the set-up: species or system Bacteria.
For series [3], the target named is Beta-lactamase VIM-1 (Bacteria) (UniProt Q8GDC1). Nature of the series: Inhibition of bacterial Metallo-beta-lactamase VIM-1 (unknown origin) at 100 uM relative to control.
Series [4] relates to Bacteria. The series can be described thus: Inhibition of bacterial Metallo-beta-lactamase VIM-5 (unknown origin) at 100 uM relative to control.
The test system of series [5] is Escherichia coli. Nature of the series: Synergistic activity against IMP-1 producing engineered Escherichia coli NUBL-24 assessed as fractional inhibition concentration index incubated for 16 to 20 hrs in presence of meropenem by CLSI-based microdilution method. In kind it is functional. To be noted: time 16-20 hrs. For orientation: Broth dilution looks for growth in wells or tubes with falling amounts of substance.

For series [6], the system named is Escherichia coli. Nature of the series: Synergistic activity against IMP-1 producing Escherichia coli NUBL-24 infected in CD1 mouse assessed as death rescue at 100 mg/kg, ip measured for 7 days in presence of meropenem relative to control. In kind it is functional. The settings on record: time 7 day.
The test system of series [7] is Klebsiella pneumoniae. The series can be described thus: Synergistic activity against NDM-1/VIM-1-producing Klebsiella pneumoniae MS5674 assessed as fractional inhibition concentration index in presence of meropenem by checkerboard assay. In kind it is functional.
In series [8] the test system is HeLa. Nature of the series: Cytotoxicity against human HeLa cells at >1000 uM incubated for 24 hrs by Celltiter assay relative to control. In kind it is toxicity, cell-based.
Series [9] is described as follows: Binding affinity to bacterial Metallo-beta-lactamase VIM-2 (unknown origin) expressed in Escherichia coli BL21(DE3) cells assessed as inhibition constant. Set-up: species or system Bacteria.
Series [10] is described as follows: Binding affinity to bacterial Metallo-beta-lactamase IMP-1 (unknown origin) expressed in Escherichia coli BL21(DE3) cells assessed as inhibition constant. On the set-up: species or system Bacteria.
Series [11] has as its target T1, Metallo-beta-lactamase VIM-2 (Pseudomonas aeruginosa, UniProt D1MEN9). Nature of the series: Inhibition of N-terminal His-tagged recombinant Pseudomonas aeruginosa Metallo-beta-lactamase VIM-2 expressed in Escherichia coli BL21 star cells using nitrocefin as substrate by absorbance based assay.
The nature of series [12]: Cytotoxicity against human HepG2 cells incubated for 24 hrs by CellTiter-Glo assay. In kind it is toxicity, cell-based. For orientation: Cellular ATP, detected with luciferase, serves as a proxy for viable cell number.
The subject of series [13] is Klebsiella pneumoniae. Nature of the series: Antibacterial activity against NDM-1-producing Klebsiella pneumoniae clinical isolate assessed as fold reduction in MIC in presence of meropenem CLSI-based broth microdilution method. In kind it is functional.
Series [14] concerns Escherichia coli. The series can be described thus: Antibacterial activity against IMP-type producing Escherichia coli clinical isolate in presence of meropenem by CLSI-based broth microdilution method. In kind it is functional.
Series [15] is described as follows: Inhibition of His-tagged recombinant bacterial Metallo-beta-lactamase IMP-1 (unknown origin) expressed in Escherichia coli BL21 star cells. Set-up: species or system Bacteria.
The test system of series [16] is Klebsiella pneumoniae. Nature of the series: Antibacterial activity against VIM-1-producing Klebsiella pneumoniae NCTC 13440 clinical isolate by CLSI-based broth microdilution method. In kind it is functional.
Series [17] concerns Escherichia coli. The series can be described thus: Antibacterial activity against IMP-type producing Escherichia coli clinical isolate in presence of imipenem by CLSI-based broth microdilution method. In kind it is functional.
In series [18] the test system is Escherichia coli. Nature of the series: Antibacterial activity against NDM-1-producing Escherichia coli assessed as fold reduction in MIC in presence of meropenem CLSI-based broth microdilution method. In kind it is functional.
For series [19], the target named is T2, Metallo-beta-lactamase type 2 (Bacteria, UniProt C7C422). The series can be described thus: Inhibition of bacterial NDM-1 (unknown origin) using imipenem as substrate.
Series [20] concerns MCF7. The series can be described thus: Cytotoxicity against human MCF7 cells at 12.5 uM relative to control. To be noted: mcf7, 12.5 µM. In kind it is toxicity, cell-based.
Series [21] deals with T2, Metallo-beta-lactamase type 2. The series can be described thus: Binding affinity to bacterial NDM-1 (unknown origin) assessed as inhibition constant.
For series [22], the system named is Escherichia coli. Nature of the series: Synergistic activity against NDM-1-producing Escherichia coli RC0089 assessed as fractional inhibition concentration index in presence of meropenem by CLSI-based assay. In kind it is functional.
The nature of series [23]: Binding affinity to bacterial Metallo-beta-lactamase IMP-1 (unknown origin) using FC5 as substrate preincubated for 15 min followed by substrate addition by fluorescence based assay. On the set-up: species or system Bacteria.
The subject of series [24] is Escherichia coli. Nature of the series: Antibacterial activity against NDM-1-producing Escherichia coli RC0089 incubated for 16 to 20 hrs in presence of meropenem CLSI-based assay. To be noted: time 16-20 hrs. In kind it is functional.
Series [25] has as its target T2, Metallo-beta-lactamase type 2. The series can be described thus: Inhibition of bacterial NDM-1 (unknown origin) using nitrocefin as substrate incubated for 10 mins followed by substrate addition by absorbance based assay.
Series [26] is described as follows: Cytotoxicity against mouse L929 cells assessed as cell viability >533 uM relative to control. In kind it is toxicity, cell-based. The settings on record: read-out: Activity.
Series [27] in a line: Cytotoxicity against human HEK293 cells assessed as cell viability >533 uM relative to control. The settings on record: read-out: Activity. In kind it is toxicity, cell-based.
Series [28] is described as follows: Binding affinity to bacterial Metallo-beta-lactamase IMP-1 (unknown origin) assessed as inhibition constant. Set-up: species or system Bacteria.
The subject of series [29] is Proteus mirabilis. Nature of the series: Antibacterial activity against IMP-type producing Proteus mirabilis UNC KPC 170 clinical isolate in presence of imipenem. In kind it is functional.
Series [30] addresses T1, Metallo-beta-lactamase VIM-2. The series can be described thus: Binding affinity to Metallo-beta-lactamase VIM-2 assessed as inhibition constant.
For series [31], the system named is Klebsiella pneumoniae. Nature of the series: Antibacterial activity against IMP-type producing Klebsiella pneumoniae LC 82 clinical isolate in presence of imipenem. In kind it is functional.
The subject of series [32] is Enterobacter sp. The series can be described thus: Antibacterial activity against IMP-type producing Enterobacter sp. 42713 clinical isolate in presence of imipenem. In kind it is functional.
The target of series [33] is Beta-lactamase NDM-1 (Escherichia coli, UniProt E5KIY2). Nature of the series: Inhibition of NDM-1 in Escherichia coli assessed as reduction in imipenem hydrolytic activity.
A short description of series [34]: Cytotoxicity against human HeLa cells. In kind it is toxicity, cell-based.
Series [35] deals with T2, Metallo-beta-lactamase type 2. Nature of the series: Inhibition of bacterial NDM-1 (unknown origin).
Series [36] shares this target. The series can be described thus: Inhibition of bacterial NDM-1 (unknown origin) using imipenem as substrate by Agilent UV8453 Spectrometric analysis.
The subject of series [37] is L929. The series can be described thus: Cytotoxicity against mouse L929 cells at 50 uM incubated for 48 hrs by CCK8 assay relative to control. In kind it is toxicity, cell-based. The settings on record: l929, 48 h. Background: Tetrazolium dyes change colour on reduction, which living cells bring about.
Series [38] in a line: Inhibition of Acinetobacter baumannii recombinant NDM-1 using nitrocefin as substrate preincubated for 10 mins followed by substrate addition by spectrophotometric analysis.
Series [39] is described as follows: Inhibition of bacterial Metallo-beta-lactamase VIM-4 (unknown origin). Set-up: species or system Bacteria.
For series [40], the target named is Beta-lactamase VIM-1 (Bacteria, UniProt Q8GDC1). The series can be described thus: Inhibition of bacterial Metallo-beta-lactamase VIM-1 (unknown origin).
Series [41] in a line: Binding affinity to bacterial Metallo-beta-lactamase VIM-2 (unknown origin) assessed as inhibition constant. On the set-up: species or system Bacteria.

≈ marks a conversion by molar mass, not a printed value.

T2 sequence (C7C422 whole entry): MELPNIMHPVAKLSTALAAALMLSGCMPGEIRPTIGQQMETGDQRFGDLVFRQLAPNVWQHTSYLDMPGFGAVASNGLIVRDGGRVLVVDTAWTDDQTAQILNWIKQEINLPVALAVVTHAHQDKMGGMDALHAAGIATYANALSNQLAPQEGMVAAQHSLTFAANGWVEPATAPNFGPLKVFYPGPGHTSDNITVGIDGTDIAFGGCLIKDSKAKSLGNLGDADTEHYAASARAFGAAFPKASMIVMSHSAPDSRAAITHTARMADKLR
Sequence of Beta-lactamase NDM-1 (E5KIY2 whole entry): as the sequence (C7C422 whole entry) above

On to `COP(=O)(CCSC(C)=O)NCc1ccccn1` (stereo not given), for which the IC50 worked out at 2200 nM in series [1] and 86000 nM in series [2].

On to `Brc1ccc(-c2nnc3n2CCCS3)cc1`, for which the results for the inhibition in [3] and in series [4] were 23% and 33%, respectively. The compound further registered a concentration for half-maximal inhibition (IC50) in series [1] of 38400 nM.

As to `CCc1c(C(=O)O)c(S(N)(=O)=O)c(CC)n1C`, the results for the “fractional inhibitory concentration index (FICI)” value in series [5] and in series [7] were 0.26 and 0.05, respectively. The Activity in series [6] is 100%; in series [8] it was over 50%. Moreover, the Ki worked out at 20 nM in series [9] and 260 nM in series [10].

`Nc1ccc(-c2ccn(S(N)(=O)=O)c2C(=O)O)cn1`: the IC50 in series [11] turned out to be 32400 nM; in [15], 430 nM. Besides, in series [12], the CC50 at 24 h is over 256 µg/mL. The “fold change (FC)” value in series [13] and in series [18] was 32 each time. Further, the MIC in series [14] came to 0.03 µg/mL; in series [17], 0.25 µg/mL. In addition, the MIC50 in series [16] was 0.06 µg/mL (≈ 0.213 µM).

For the compound `O=S(=O)(Nc1cccc2cccnc12)c1ccc(Cl)cc1`, in [19], the IC50 is 20 nM. The same compound yielded an Activity in [20] of under 60%. Besides, the Ki in [21] (read-out: Ki) is 5900 nM.

As for `CC(C)c1cccc2c(-c3ccc(F)cc3)c(C(=O)O)[nH]c12`, the “fractional inhibitory concentration index (FICI)” value in series [22] is on record as 0.258. Also, in series [23], the IC50 is 140 nM. The MIC in series [24] came out at 16 µg/mL.

`O=C(Cc1ccccc1)N[C@@H]1C(=O)N2C(C(=O)O)=C(CSc3cccc[n+]3[O-])CS[C@H]12` came in with an IC50 in series [25] of 7600 nM.

As for `CCOC(=O)[C@]1(CS)N[C@@H](C(=O)O)C(C)(C)S1`, the viability in series [26] turned out to be 85%. Besides, the viability at 533 µM in series [27] came to 85%. The figures for the inhibition constant (Ki) in series [21] (read-out: Ki), in series [28] and in series [30] were 600 nM, 2000 nM and 1900 nM, respectively. Further, the MIC in [29] was found to be 8 µg/mL; in [31] it was 0.5 µg/mL; in series [32] it was 8 µg/mL. The IC50 in [33] is 10000 nM.

In the case of `CN1CCN(C(=S)N/N=C/c2ccccc2O)CC1`, the IC50 is over 64 µg/mL in [34] and 302 nM in [35]. Moreover, the Ki in [21] turned out to be 440000 nM.

With `S=C(N/N=C/c1ccccn1)Nc1ccc(Cl)cc1`, the half-maximal inhibitory concentration (IC50) in series [36] was 38 nM. Moreover, in series [37], the Activity is over 60%.

`CC1=C(CO)C(=O)O[C@@H]([C@@H](C)[C@H]2CC[C@H]3[C@@H]4C[C@H]5O[C@]56[C@@H](O)C=CC(=O)[C@]6(C)[C@H]4CC[C@]23C)C1` [WITHAFERIN A]: in [38], the IC50 came out at 24000 nM.

Turning to `O=C(O)c1ccccc1CCn1c(-c2cccc(-c3ccccc3)c2)n[nH]c1=S`, the IC50 in [1] was 80 nM; in series [39], 2100 nM; in series [40] it was 1610 nM. Moreover, in series [41], the Ki was 38 nM.
